Where a name gives a salt, the structure may show the parent alone. ± gives the uncertainty stated by the source.
Test system: HepG2 (L1.3 5'UTR promoter firefly luciferase reporter)
Assay: L1 promoter activity (FLuc/RLuc) relative to DMSO vehicle control (% of control); higher = stronger L1 promoter activation
Experimental: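 HepG2 cells in 96-well plates were cotransfected with pGL4.11-L1.3 5'UTR (firefly luciferase driven by the human L1.3 5'UTR promoter) and pGL4.74 (HSV-TK Renilla luciferase internal control), then treated with compound for 6 or 24 h. FLuc/RLuc ratio was normalised to the DMSO vehicle control (% of control); concentrations where RLuc fell below 50% of control were excluded (N.D.). Mean of at least two independent experiments in duplicate or quadruplicate.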

[1] = concentration (uM unless unit written): 50, treatment time: 6 h
[2] = concentration (uM unless unit written): 50, treatment time: 24 h
[3] = concentration (uM unless unit written): 100, treatment time: 6 h
[4] = concentration (uM unless unit written): 100, treatment time: 24 h
[5] = concentration (uM unless unit written): 10, treatment time: 6 h
[6] = concentration (uM unless unit written): 10, treatment time: 24 h
[7] = concentration (uM unless unit written): 5, treatment time: 6 h
[8] = concentration (uM unless unit written): 5, treatment time: 24 h
[9] = concentration (uM unless unit written): 500, treatment time: 6 h
[10] = concentration (uM unless unit written): 1000, treatment time: 6 h
[11] = concentration (uM unless unit written): 0.1, treatment time: 6 h

CC(=O)N[C@H]1[C@@H](O[C@@H]2O[C@H](CC(O)[C@H]3O[C@@H](n4ccc(=O)[nH]c4=O)[C@H](O)[C@@H]3O)[C@H](O)[C@H](O)[C@H]2NC(=O)/C=C/CC(C)C)O[C@H](CO)[C@@H](N)[C@@H]1O (stereo partly drawn) [Tunicamycin]
L1 promoter activity (concentration (uM unless unit written): 5 μg/mL, treatment time: 6 h): 76.6 ± 8.1 | L1 promoter activity (concentration (uM unless unit written): 5 μg/mL, treatment time: 24 h): 73.3 ± 3.2 | L1 promoter activity (concentration (uM unless unit written): 10 μg/mL, treatment time: 6 h): 66.6 ± 7.3 | L1 promoter activity (concentration (uM unless unit written): 10 μg/mL, treatment time: 24 h): 84.5 ± 11 | L1 promoter activity (concentration (uM unless unit written): 20 μg/mL, treatment time: 6 h): 63.5 ± 3.2 | L1 promoter activity (concentration (uM unless unit written): 20 μg/mL, treatment time: 24 h): 72.1 ± 7.7 | L1 promoter activity (concentration (uM unless unit written): 40 μg/mL, treatment time: 24 h): 75.8 ± 6.2

C[C@]12CCC(=O)C=C1CC[C@@H]1[C@@H]2CC[C@@]2(C)[C@H]1CC[C@]2(C)O [Methyltestosterone]
L1 promoter activity (concentration (uM unless unit written): 25, treatment time: 6 h): 94.7 ± 15 | L1 promoter activity (concentration (uM unless unit written): 25, treatment time: 24 h): 73.9 ± 15 | L1 promoter activity [1]: 108 ± 4.4 | L1 promoter activity [2]: 74.5 ± 14 | L1 promoter activity [3]: 98.5 ± 14 | L1 promoter activity [4]: 85.3 ± 3.9

CC(CN1c2ccccc2Sc2ccccc21)N(C)C (stereo not drawn) [Promethazine hydrochloride]
L1 promoter activity [1]: 73.9 ± 13

CC(C)OC(=O)C(C)(C)Oc1ccc(C(=O)c2ccc(Cl)cc2)cc1 [Fenofibrate]
L1 promoter activity [5]: 117 ± 9.8 | L1 promoter activity [6]: 108 ± 5.3 | L1 promoter activity [1]: 126 ± 11 | L1 promoter activity [2]: 127 ± 10 | L1 promoter activity [3]: 141 ± 12 | L1 promoter activity [4]: 163 ± 24

Nc1nc(=S)c2[nH]cnc2[nH]1 [6-Thioguanine]
L1 promoter activity (concentration (uM unless unit written): 2.5, treatment time: 6 h): 126 ± 16 | L1 promoter activity (concentration (uM unless unit written): 2.5, treatment time: 24 h): 98.6 ± 12 | L1 promoter activity [7]: 108 ± 17 | L1 promoter activity [8]: 102 ± 14 | L1 promoter activity [5]: 104 ± 4.2 | L1 promoter activity [6]: 97.3 ± 11

CC(C)Cc1ccc(C(C)C(=O)O)cc1 (stereo not drawn) [Ibuprofen]
L1 promoter activity (concentration (uM unless unit written): 250, treatment time: 6 h): 118 ± 8.4 | L1 promoter activity (concentration (uM unless unit written): 250, treatment time: 24 h): 90.8 ± 3.5 | L1 promoter activity [9]: 99.7 ± 9.8 | L1 promoter activity (concentration (uM unless unit written): 500, treatment time: 24 h): 89.6 ± 10 | L1 promoter activity [10]: 97.2 ± 8.2 | L1 promoter activity (concentration (uM unless unit written): 1000, treatment time: 24 h): 74.9 ± 7.6

COc1cc2c(c(OC)c1OC)-c1ccc(OC)c(=O)cc1[C@@H](NC(C)=O)CC2 [Colchicine]
L1 promoter activity (concentration (uM unless unit written): 0.01, treatment time: 6 h): 100 ± 17 | L1 promoter activity (concentration (uM unless unit written): 0.01, treatment time: 24 h): 100 ± 18 | L1 promoter activity (concentration (uM unless unit written): 0.05, treatment time: 6 h): 99.8 ± 4.3 | L1 promoter activity [11]: 108 ± 32

CN1CCC(=C2c3ccccc3CC(=O)c3sccc32)CC1 [Ketotifen fumarate salt]
L1 promoter activity [1]: 90.4 ± 6.5 | L1 promoter activity [2]: 89.9 ± 4.6 | L1 promoter activity [3]: 92.3 ± 7.8 | L1 promoter activity [4]: 83.7 ± 8 | L1 promoter activity (concentration (uM unless unit written): 200, treatment time: 6 h): 80.3 ± 4.5

CC1=C2C(=CO[C@H](C)[C@H]2C)C(O)=C(C(=O)O)C1=O [Citrinin]
L1 promoter activity (concentration (uM unless unit written): 45, treatment time: 6 h): 101 ± 12 | L1 promoter activity (concentration (uM unless unit written): 45, treatment time: 24 h): 104 ± 14 | L1 promoter activity (concentration (uM unless unit written): 90, treatment time: 6 h): 102 ± 10 | L1 promoter activity (concentration (uM unless unit written): 90, treatment time: 24 h): 134 ± 25

CC(C)(Oc1ccc(CCNC(=O)c2ccc(Cl)cc2)cc1)C(=O)O [Bezafibrate]
L1 promoter activity [5]: 115 ± 13 | L1 promoter activity [6]: 105 ± 4.7 | L1 promoter activity [3]: 140 ± 11 | L1 promoter activity [4]: 133 ± 13 | L1 promoter activity [10]: 174 ± 14

CN(C)CCC(c1ccc(Cl)cc1)c1ccccn1 (racemic) [(±)-Chlorpheniramine maleate salt]
L1 promoter activity [1]: 91.1 ± 9.6 | L1 promoter activity [2]: 96.2 ± 19 | L1 promoter activity [3]: 101 ± 9.2 | L1 promoter activity [4]: 86.4 ± 8.2 | L1 promoter activity [9]: 84 ± 3.3

NC(=O)CI [Iodoacetamide]
L1 promoter activity [11]: 97.4 ± 9 | L1 promoter activity (concentration (uM unless unit written): 0.1, treatment time: 24 h): 103 ± 11 | L1 promoter activity (concentration (uM unless unit written): 1, treatment time: 6 h): 101 ± 13 | L1 promoter activity (concentration (uM unless unit written): 1, treatment time: 24 h): 106 ± 16 | L1 promoter activity [7]: 117 ± 23 | L1 promoter activity [5]: 130 ± 27

CC1=CC(=O)c2ccccc2C1=O [Menadione]
L1 promoter activity (concentration (uM unless unit written): 17.5, treatment time: 6 h): 116 ± 11

CC(=O)O[C@H]1C(=O)[C@@]2(C)[C@H]([C@H](OC(=O)c3ccccc3)[C@]3(O)C[C@H](OC(=O)[C@H](O)[C@@H](NC(=O)c4ccccc4)c4ccccc4)C(C)=C1C3(C)C)[C@]1(OC(C)=O)CO[C@@H]1C[C@@H]2O [Taxol]
L1 promoter activity [7]: 104 ± 17 | L1 promoter activity [8]: 86.9 ± 18 | L1 promoter activity [5]: 123 ± 35 | L1 promoter activity [6]: 81.9 ± 11 | L1 promoter activity (concentration (uM unless unit written): 20, treatment time: 6 h): 96.8 ± 14 | L1 promoter activity (concentration (uM unless unit written): 20, treatment time: 24 h): 76.3 ± 13
